According to patent US8629148B2, “Substituted oxindole-derivatives and the use thereof for the treatment of vasopressin-dependent illnesses” (AbbVie Deutschland GmbH & Co. KG, priority 2007, dated 2014):
pKi: −log10 of the molar value.

Assays:
[1] = target: T1, human vasopressin V1b receptor (Homo sapiens, UniProt P47901); experiment: Vasopressin V1b receptor binding assay (3H-AVP displacement, CHO-K1 membranes)
T1 construct: expressed in transfected cells; host or cells: CHO-K1 (cell line hV1b_3H2_CHO), membranes
T1 sequence (P47901 1-424): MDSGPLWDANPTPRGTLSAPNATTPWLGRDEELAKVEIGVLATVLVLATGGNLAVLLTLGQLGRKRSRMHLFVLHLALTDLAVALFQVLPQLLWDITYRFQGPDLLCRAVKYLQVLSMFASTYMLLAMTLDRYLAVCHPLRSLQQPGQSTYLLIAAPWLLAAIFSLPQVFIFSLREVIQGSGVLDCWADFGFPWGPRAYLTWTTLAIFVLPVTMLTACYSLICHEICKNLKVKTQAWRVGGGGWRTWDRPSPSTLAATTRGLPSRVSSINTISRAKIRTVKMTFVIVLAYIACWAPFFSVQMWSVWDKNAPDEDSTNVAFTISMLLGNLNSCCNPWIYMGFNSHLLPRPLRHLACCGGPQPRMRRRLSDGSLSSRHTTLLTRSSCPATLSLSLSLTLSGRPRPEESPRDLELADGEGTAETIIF
Experimental: 1. Vasopressin V1b Receptor Binding Assay:
The substance concentration was further diluted 1:5 in the assay mixture (2% DMSO in the mixture).
All determinations were carried out as triplicate determinations.

[2] = target: T2, recombinant human oxytocin receptors (Homo sapiens, UniProt P30559); experiment: Oxytocin receptor binding assay (3H-oxytocin, HEK-293 cells); conditions: selectivity quotient, human OT vs human V1b
T2 construct: expressed in transfected cells; host or cells: HEK-293, transient expression; lysed and homogenized cells
T2 sequence (P30559 1-389): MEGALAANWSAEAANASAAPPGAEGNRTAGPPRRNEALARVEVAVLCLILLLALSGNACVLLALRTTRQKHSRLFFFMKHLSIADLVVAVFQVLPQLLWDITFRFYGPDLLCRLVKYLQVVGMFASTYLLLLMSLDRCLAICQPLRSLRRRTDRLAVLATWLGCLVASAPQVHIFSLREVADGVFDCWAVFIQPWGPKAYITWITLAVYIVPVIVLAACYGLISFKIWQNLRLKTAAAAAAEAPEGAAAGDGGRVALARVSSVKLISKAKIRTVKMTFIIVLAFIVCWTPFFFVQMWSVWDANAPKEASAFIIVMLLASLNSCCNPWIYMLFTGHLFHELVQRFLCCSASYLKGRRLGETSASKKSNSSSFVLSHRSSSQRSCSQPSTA
Experimental: The residue was taken up in ice-cold lysis buffer (50 mM Tris-HCl, 10% glycerol, pH 7.4 and Roche complete protease inhibitor) and subjected to an osmotic shock at 4° C. for 20 minutes. The lyzed cells were then centrifuged at 750×g at 4° C. for 20 minutes, the residue was taken up in incubation buffer, and aliquots of 10^7 cells/ml were prepared. The aliquots were frozen at −80° C. until used.
On the day of the experiment, the cells were thawed, diluted with incubation buffer and homogenized using a Multipette Combitip (Eppendorf, Hamburg). […] Triplicate determinations were set up. Bound and free radioligand were separated by filtration under vacuum with Whatman GF/B glass fiber filters with the aid of a Skatron cell harvester 7000. The bound radioactivity was determined by liquid scintillation measurement in a Tricarb Beta counter, model 2000 or 2200CA (Packard).

[3] = target: human vasopressin V1a receptor (Homo sapiens, UniProt P37288); experiment: Vasopressin V1a receptor binding assay (125I-AVP displacement, CHO-K1 membranes); conditions: selectivity quotient, human V1a vs human V1b
human vasopressin V1a receptor, sequence (P37288 whole entry): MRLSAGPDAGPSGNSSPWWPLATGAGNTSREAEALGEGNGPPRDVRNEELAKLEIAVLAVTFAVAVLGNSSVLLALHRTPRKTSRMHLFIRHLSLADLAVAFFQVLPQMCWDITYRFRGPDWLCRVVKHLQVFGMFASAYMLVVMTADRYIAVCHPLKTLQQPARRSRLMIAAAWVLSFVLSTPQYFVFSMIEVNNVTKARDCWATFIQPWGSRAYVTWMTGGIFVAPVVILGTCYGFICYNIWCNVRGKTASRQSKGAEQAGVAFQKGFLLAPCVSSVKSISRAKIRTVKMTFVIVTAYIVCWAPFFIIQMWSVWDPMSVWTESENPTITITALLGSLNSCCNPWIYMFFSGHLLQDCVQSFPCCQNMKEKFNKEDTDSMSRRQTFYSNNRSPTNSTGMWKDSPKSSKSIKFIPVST

Row | Compound | pKi [1] | Ki(h-OT)/Ki(h-V1b)* [2] | Ki(h-V1a)/Ki(h-V1b)* [3]
1 | CCOc1ncccc1C1(NCc2ccc(N3CCN(C)CC3)cc2)C(=O)N(S(=O)(=O)c2ccc(OC)cc2)c2cc(F)c(C#N)cc21 (stereo not drawn) [Example 33, 3-(2-Ethoxypyridin-3-yl)-6-fluoro-1-(4-methoxyphenylsulfonyl)-3-[4-(4-methylpiperazin-1-yl)benzylamino]-2-oxo-2,3-dihydro-1H-indole-5-carbonitrile] | > 9.00 | +++ (>75) | +++ (>75)
2 | CCOc1ncccc1C1(Nc2ccc(CN3CCN(C)CC3)cc2)C(=O)N(S(=O)(=O)c2ccc(OC)cc2OC)c2ccc(C#N)cc21 (stereo not drawn) [Example 74, 1-(2,4-Dimethoxyphenylsulfonyl)-3-(2-ethoxypyridin-3-yl)-3-[4-(4-methylpiperazin-1-ylmethyl)phenylamino]-2-oxo-2,3-dihydro-1H-indole-5-carbonitrile] | 8.00 to 9.00 | +++ (>75) | +++ (>75)
3 | CCOc1ncccc1C1(NC(=O)c2ccc(N3CCN(CC)CC3)cc2)C(=O)N(S(=O)(=O)c2ccc(OC)cc2OC)c2ccc(C#N)cc21 (stereo not drawn) [Example 7, N-[5-Cyano-1-(2,4-dimethoxyphenylsulfonyl)-3-(2-ethoxypyridin-3-yl)-2-oxo-2,3-dihydro-1H-indol-3-yl]-4-(4-ethylpiperazin-1-yl)benzamide] | 8.00 to 9.00 | ++ (25-75) | +++ (>75)
4 | CCOc1ncccc1C1(OC(=O)c2ccc(N3CCN(C)CC3)cc2)C(=O)N(S(=O)(=O)c2ccc(OC)cc2)c2ccc(C#N)cc21 (stereo not drawn) [Example 2, 5-Cyano-3-(2-ethoxypyridin-3-yl)-1-(4-methoxyphenylsulfonyl)-2-oxo-2,3-dihydro-1H-indol-3-yl-4-(4-methylpiperazin-1-yl)benzoate] | 8.00 to 9.00 | ++ (25-75) | +++ (>75)
5 | CCOc1ncccc1C1(NCc2ccc(N3CCN(C)CC3)cc2)C(=O)N(S(=O)(=O)c2ccccc2OC)c2ccc(C#N)cc21 (stereo not drawn) [Example 24, 3-(2-Ethoxypyridin-3-yl)-1-(2-methoxyphenylsulfonyl)-3-[4-(4-methylpiperazin-1-yl)-benzylamino]-2-oxo-2,3-dihydro-1H-indole-5-carbonitrile] | 8.00 to 9.00 | + (10-<25) | +++ (>75)
6 | CCOc1ncccc1C1(Nc2cccc(N3CCN(C)CC3)c2)C(=O)N(S(=O)(=O)c2ccc(OC)cc2OC)c2ccc(I)cc21 (stereo not drawn) [Example 60, 1-(2,4-Dimethoxyphenylsulfonyl)-3-(2-ethoxypyridin-3-yl)-5-iodo-3-[3-(4-methylpiperazin-1-yl)phenylamino]-1,3-dihydroindol-2-one] | 8.00 to 9.00 | ++ (25-75) | ++ (25-75)
